According to article PMC8705783, “The Effect of Conjugation with Octaarginine, a Cell-Penetrating Peptide on Antifungal Activity of Imidazoacridinone Derivative” (International Journal of Molecular Sciences, 2021):
Values after ≈ are worked out from the molar mass of the structure shown. Where two headings read alike, the source gives them in different places.

Experiments:
Candida albicans F5 = conditions: F5, 12 h
Candida albicans B4 = conditions: B4, 12 h
Candida albicans B3 = conditions: B3, 12 h
[1] = tested on: Candida albicans ATCC 10231
HeLa cells = conditions: cited from earlier work
Candida albicans Gu5 = conditions: Gu5, 12 h
Candida krusei ATCC 6258 [2] = tested on: Candida krusei ATCC 6258
Candida albicans Gu4 = conditions: Gu4, 12 h
[3] = tested on: Saccharomyces cerevisiae ATCC 9763
HEK-293 = assay: cells; type: cell-based, human
Method: (§1) The investigated compounds were screened for their in vitro antiproliferative activity towards a human embryonic kidney cell line (HEK-293) and human liver cancer cell line (HEPG2) using colorimetric MTT.
(§2) The human embryonic kidney cell line (HEK-293) and human liver cancer cell line (HEPG2) were purchased from ATCC (Manassas, Virginia, USA). HEK-293 was cultured in Dulbecco’s Modified Eagle Medium (Corning, NY, USA) and HEPG2 in Minimum Essential Medium Eagle (Corning, NY, USA). For each cell line, the culture medium was supplemented with 10% fetal bovine serum, 2 mM L-glutamine, and antibiotics: penicillin 62.6 µg mL^−1 and streptomycin 40 µg mL^−1. The cells were cultured at the humidified atmosphere of 5% CO2/95% air and routinely tested for Mycoplasma contamination.
(§3) Antiproliferative activity of the compounds was determined by (3-(4,5-dimethylthiazol-2-yl)-2,5-diphenyltetrazolium bromide (MTT, Sigma-Aldrich, St. Louis, MO, USA) assay, which involves the assessment of cell viability by the measurement of the cellular oxidoreductase activity. Briefly, cells were seeded into 96-well culture plates and were allowed to adhere overnight. The investigated compounds were dissolved in DMSO and added to wells (1% final concentration of DMSO) in various concentrations. After 72 h incubation, 20 µL of MTT solution in PBS (4 mg mL^−1) was added to each well, and plates were incubated for an additional 3h in standard culture conditions. After that, the medium was aspirated, and formazan crystals were dissolved in DMSO. The absorbance was determined at 570 nm with a microplate reader (Asys UVM 340 Microplate Reader, Biochrom, Cambridge, UK). All experiments were performed three times independently in triplicate.

HEPG2 = assay: cells; type: cell-based, human
Method: as §1, §2, §3

Candida albicans F2 = conditions: F2, 12 h
[4] = tested on: Candida parapsilosis ATCC 22019
[5] = tested on: Candida glabrata ATCC 90030
Candida krusei ATCC 6258 [6] = assay: microbe, parasite or virus in culture; conditions: Pichia kudriavzevii, ATCC6258, 24 h, pH 7
[7] = tested on: Candida glabrata ATCC 90030; assay: microbe, parasite or virus in culture; conditions: Nakaseomyces glabratus, ATCC90030, 24 h, pH 7
[8] = tested on: Candida parapsilosis ATCC 22019; assay: microbe, parasite or virus in culture; conditions: Lodderomyces parapsilosis, ATCC22019, 24 h, pH 7
reference strains = assay: Antifungal activity, summary over reference strains; type: cell-based; set-up: key to Antifungal Activity (level): (−) Means no antifungal activity; (±) low activity; (+) moderate activity; (++) high activity at the concentration mentioned
Candida albicans = tested on: Candida albicans; set-up: method as in PMID 23563951; conditions: cited from earlier work
HEK-293 and HEPG2 = assay: Antiproliferative activity, MTT, both tested cell lines; type: cell-based; conditions: Homo sapiens; Table 5
Method: as §1
as §2, with “The cells were cultured at the humidified atmosphere of 5% CO2/95% air and routinely tested for Mycoplasma contamination.” left out
as §3, with “After that, the medium was aspirated, and formazan crystals were dissolved in DMSO. The absorbance was determined at 570 nm with a microplate reader (Asys UVM 340 Microplate Reader, Biochrom, Cambridge, UK). All experiments were performed three times independently in triplicate.” left out

[9] = tested on: Saccharomyces cerevisiae ATCC 9763; assay: microbe, parasite or virus in culture; conditions: ATCC9763, 24 h, pH 7
yeast topoisomerase II [10] = biological target: T1, yeast topoisomerase II (Saccharomyces cerevisiae, UniProt P06786); assay: Yeast topoisomerase II relaxation assay; type: biochemical; conditions: supercoiled pBR322, tested at 1-200 μM
Method: Due to the known activity of acridine and acridone derivatives as human topoisomerase inhibitors widely analysed for cancer chemotherapy, we decided to analyse the influence of Compound 1 as well as its R8 conjugate on the fungal equivalent of that enzyme. The relaxation of supercoiled plasmid DNA by yeast topoisomerase II (yTOPO II) was studied in the presence of different concentrations of both compounds.
The inhibition of yeast topoisomerase II was analysed according to the relaxation assay kit from Inspiralis (Inspiralis Limited, Norwich, UK). Briefly, 250 ng of supercoiled pBR322 DNA (Thermo Fisher Scientific, Waltham, MA, USA), 1 mM ATP (Inspiralis Limited, UK), and 1–200 μM of the analysed compound were mixed with reaction buffer (1 mM Tris-HCl (pH 7.9), 10 mM KCl, 0.5 mM MgCl2, 0.2 % (by volume) glycerol). The reaction was initiated by the addition of an enzyme, allowed to proceed at 30 °C for 30 min and terminated by addition of 40% (m/V) sucrose, 100 mM Tris-HCl pH 8, 10 mM EDTA, and 0.5 mg mL^−1 Bromophenol Blue. Two-step extraction with chloroform:isoamyl alcohol (24:1, by volume) and butanol water was performed and mixtures were analysed on 1% agarose gel in 1 × TAE buffer, 3h, 4.5 V cm^−1. Gel was stained in GelRed 3 × staining solution (Biotium, Fremont, CA, USA) for 30 min and photographed with Gel Doc XR+Gel Documentation System (Bio-Rad: Hercules, CA, USA).

human topoisomerase II = conditions: cited from earlier work
yeast topoisomerase II [11] = biological target: T1, yeast topoisomerase II; assay: Formation of cleavable complexes in vitro; type: biochemical; conditions: 0.1-10 μM, pBR322 plasmid DNA
Method: Cleavage assay of yeast topoisomerase II was performed according to the formation of cleavable complexes kit from Inspiralis. The experimental conditions were the same as for the relaxation assay except for the amount of yeast topoisomerase II (16 times more enzyme was used). The reaction was initiated by the addition of the enzyme and allowed to proceed for 10 min at 30 °C. Then, 0.35% SDS and 0.3 mg mL^−1 proteinase K (A&A Biotechnology, Gdynia, Poland) was added, and the probes were incubated in 56 °C for 1 h. The reaction was terminated by the addition of 100 mM Tris-HCl pH 8, 10 mM EDTA, 0.5 mg mL^−1 Bromophenol Blue. Extraction with chloroform:isoamyl alcohol (24:1, by volume) was performed, and mixtures were analysed on the 1.2% agarose gel with 0.5 µg mL^−1 ethidium bromide in 1x TAE buffer, 18 h, 1.1 V cm^−1. Gel was photographed with the Gel Doc XR+Gel Documentation System.

Candida albicans cells = tested on: Candida albicans cells; set-up: method as in PMID 23563951; conditions: cited from earlier work
[12] = tested on: Candida albicans ATCC 10231; assay: microbe, parasite or virus in culture; conditions: ATCC10231, 24 h, pH 7

T1 sequence (P06786 whole entry): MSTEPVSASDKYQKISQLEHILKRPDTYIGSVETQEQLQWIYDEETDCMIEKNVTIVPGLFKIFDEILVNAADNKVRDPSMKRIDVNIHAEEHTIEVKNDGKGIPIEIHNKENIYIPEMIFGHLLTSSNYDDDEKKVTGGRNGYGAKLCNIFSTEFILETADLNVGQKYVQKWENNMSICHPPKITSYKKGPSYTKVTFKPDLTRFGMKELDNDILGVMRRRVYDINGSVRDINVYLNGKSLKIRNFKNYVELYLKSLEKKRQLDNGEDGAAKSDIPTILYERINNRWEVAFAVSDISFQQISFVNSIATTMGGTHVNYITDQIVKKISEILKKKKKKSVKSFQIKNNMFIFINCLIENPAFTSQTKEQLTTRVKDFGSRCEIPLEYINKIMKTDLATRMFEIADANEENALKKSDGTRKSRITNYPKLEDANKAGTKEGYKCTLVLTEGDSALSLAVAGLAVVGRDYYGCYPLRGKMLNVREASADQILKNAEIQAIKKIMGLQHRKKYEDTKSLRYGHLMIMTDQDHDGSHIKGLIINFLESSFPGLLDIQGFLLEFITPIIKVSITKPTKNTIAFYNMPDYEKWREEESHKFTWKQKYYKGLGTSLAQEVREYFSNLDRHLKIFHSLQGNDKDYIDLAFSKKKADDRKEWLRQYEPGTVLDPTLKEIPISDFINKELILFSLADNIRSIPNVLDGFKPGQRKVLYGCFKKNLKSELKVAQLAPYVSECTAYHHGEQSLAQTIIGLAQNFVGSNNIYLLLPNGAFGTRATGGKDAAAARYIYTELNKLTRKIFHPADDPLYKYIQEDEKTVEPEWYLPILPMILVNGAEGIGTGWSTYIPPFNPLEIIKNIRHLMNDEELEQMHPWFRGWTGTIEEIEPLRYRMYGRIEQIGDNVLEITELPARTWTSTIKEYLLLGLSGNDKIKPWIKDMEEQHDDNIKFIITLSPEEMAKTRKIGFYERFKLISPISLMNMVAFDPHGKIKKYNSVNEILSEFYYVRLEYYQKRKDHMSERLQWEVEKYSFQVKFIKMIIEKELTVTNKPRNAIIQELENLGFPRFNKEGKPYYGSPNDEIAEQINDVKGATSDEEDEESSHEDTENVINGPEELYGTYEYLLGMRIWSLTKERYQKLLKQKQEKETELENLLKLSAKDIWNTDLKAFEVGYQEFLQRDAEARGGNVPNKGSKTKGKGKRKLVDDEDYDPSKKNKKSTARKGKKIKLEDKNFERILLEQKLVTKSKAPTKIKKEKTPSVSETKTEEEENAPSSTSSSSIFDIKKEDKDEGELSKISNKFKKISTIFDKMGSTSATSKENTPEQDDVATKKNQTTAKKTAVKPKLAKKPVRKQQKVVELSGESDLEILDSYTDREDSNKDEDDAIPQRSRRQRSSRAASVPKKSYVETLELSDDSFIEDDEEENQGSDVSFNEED

Structure (SMILES): N=C(N)NCCC[C@H](NC(=O)[C@H](CCCNC(=N)N)NC(=O)[C@H](CCCNC(=N)N)NC(=O)[C@H](CCCNC(=N)N)NC(=O)[C@H](CCCNC(=N)N)NC(=O)[C@H](CCCNC(=N)N)NC(=O)[C@H](CCCNC(=N)N)NC(=O)[C@@H](N)CCCNC(=N)N)C(=O)O [Compound R8, Octaarginine]
- MIC90 (Candida albicans F5): >64 µg/mL
- MIC90 (Candida albicans B4): >64 µg/mL
- MIC90 (Candida albicans B3): >64 µg/mL
- MIC90 ([1]; ATCC 10231, 18 h): >64 µg/mL
- MIC90 ([1]; ATCC 10231, 24 h, pH 7): >64 µg/mL
- cytotoxicity (HeLa cells): no cytotoxicity
- MIC90 (Candida albicans Gu5): >64 µg/mL
- MIC90 (Candida krusei ATCC 6258 [2]; ATCC 6258, 24 h, pH 7): >64 µg/mL
- MIC90 (Candida albicans Gu4): >64 µg/mL
- MIC90 ([3]; ATCC 9763, 24 h, pH 7): 64 µg/mL (≈ 50.5 µM)
- IC50 (HEK-293; 72 h): > 50000 nM
- IC50 (HEPG2; 72 h): > 50000 nM
- MIC90 (Candida albicans F2): >64 µg/mL
- MIC90 ([4]; ATCC 22019, 24 h, pH 7): 64 µg/mL (≈ 50.5 µM)
- MIC90 ([5]; ATCC 90030, 24 h, pH 7): >64 µg/mL

Structure (SMILES): CCN(CC)CCNc1ccc2ncn3c4ccc(O)cc4c(=O)c1c23 [Compound C-1311, 5-((2-(Diethylamino)ethyl)amino)-8-hydroxy-6H-imidazo[4,5,1-de]acridin-6-one]
- MIC90 (Candida krusei ATCC 6258 [6]): > 64 µg/mL
- MIC90 [7]: > 64 µg/mL
- MIC90 [8]: > 64 µg/mL
- Antifungal Activity (level) (reference strains; Table 3): −
- antifungal activity (reference strains; as reported in Table 1): no antifungal activity was observed
- antifungal activity (Candida albicans): no antifungal activity was observed
- IC50 HEK293/MIC90 (mycostatic selectivity index) ([1]; HEK293 vs Candida albicans ATCC 10231, MIC converted to micromolar): <0.00005
- IC50 HEPG2/MIC90 (mycostatic selectivity index) ([1]; HEPG2 vs Candida albicans ATCC 10231): <0.00078
- IC50 (HEK-293 and HEPG2): ≤ 1000 nM
- MIC90 [9]: > 64 µg/mL
- concentration that totally inhibited yeast topoisomerase II-mediated relaxation (yeast topoisomerase II [10]): 50 µM
- IC50 (hTOPO II inhibition) (human topoisomerase II): 2.5 µg/mL (≈ 7.13 µM)
- IC50 (human topoisomerase II; read-out: IC50 (hTOPO II inhibition)): 6500 nM
- formation of DNA–yeast topoisomerase II cleavable complexes (yeast topoisomerase II [11]): stimulated the formation of DNA–yeast topoisomerase II cleavable complexes
- IC50 HEK293/MIC90 (mycostatic selectivity index) (Candida krusei ATCC 6258 [2]; HEK293 vs Candida krusei ATCC 6258): <0.00005
- IC50 HEPG2/MIC90 (mycostatic selectivity index) (Candida krusei ATCC 6258 [2]; HEPG2 vs Candida krusei ATCC 6258): <0.00078
- IC50 HEK293/MIC90 (mycostatic selectivity index) ([3]; HEK293 vs Saccharomyces cerevisiae ATCC 9763): <0.00005
- IC50 HEPG2/MIC90 (mycostatic selectivity index) ([3]; HEPG2 vs Saccharomyces cerevisiae ATCC 9763): <0.00078
- IC50 (HEK-293; Homo sapiens, HEK293, 72 h treatment, MTT, ± SD, read-out: IC50 (antiproliferative activity)): 8 ± 7 nM
- IC50 (HEPG2; Homo sapiens, HEPG2, 72 h treatment, MTT, ± SD, read-out: IC50 (antiproliferative activity)): 129 ± 37 nM
- accumulation in Candida albicans cells (Candida albicans cells): unable to accumulate in Candida albicans cells
- MIC90 [12]: > 64 µg/mL
- IC50 HEK293/MIC90 (mycostatic selectivity index) ([4]; HEK293 vs Candida parapsilosis ATCC 22019): <0.00005
- IC50 HEPG2/MIC90 (mycostatic selectivity index) ([4]; HEPG2 vs Candida parapsilosis ATCC 22019): <0.00078
- IC50 HEK293/MIC90 (mycostatic selectivity index) ([5]; HEK293 vs Candida glabrata ATCC 90030): <0.00005
- IC50 HEPG2/MIC90 (mycostatic selectivity index) ([5]; HEPG2 vs Candida glabrata ATCC 90030): <0.00078
